This is an account of results in patent US8846860B2, “Methods of decorating hydroxyapatite biomaterials with modular biologically active molecules” (Wisconsin Alumni Research Foundation, priority 2009, dated 2014).

Assay [1] deals with hMSCs. Kind of assay: Alkaline phosphatase (ALP) activity in hMSCs. The class given is cell-based, human. The note with it: soluble peptide (50 μg in 500 μl) with osteogenic supplements, hMSCs on TCP, day 12. The protocol: hMSCs (Cambrex, Walkersville, Md., passages 5-6) were cultured in mesenchymal stem cell growth medium (MSCGM: Cambrex) consisting of MSC Basal Medium supplemented with 10% fetal bovine serum, L-glutamine, 100 units/ml penicillin, and 0.1 mg/ml streptomycin. 2.5×10^4 hMSCs were seeded onto either tissue culture-treated polystyrene (TCP) or four different types of experimental substrates (1 cm^2) (PLG, HA-coated PLG, eBGu3-treated HA coating, or eBGa3-treated HA coating). hMSCs were allowed to attach to each substrate overnight, then cultured in MSCGM with osteogenic culture supplements (OS) (0.1 μM dexamethasone, 50 μg/ml ascorbic acid, and 10 mM β-glycerophosphate) for 24 days. The effects of soluble peptides included in culture medium were evaluated by adding 50 μg of eBGu3 or eBGa3 peptides to hMSC cultures on TCP in 500 μl of medium with or without osteogenic culture supplements. […]
The biological activity of modular peptides was initially assayed by their ability to enhance ALP activity in hMSCs. […] ALP activity was measured at 405 nm, and calculated as the ratio of p-nitrophenol released to total DNA concentration (nmol/min/μg DNA). To determine the amount of total DNA in each well, the cell nuclei were disrupted by addition of the aforementioned lysis buffer followed by centrifugation, and quantified using the CyQUANT Assay Kit (Molecular Probes, Eugene, Oreg.).

The test system of assay [2] is hMSCs. The assay can be described thus: Mineralized tissue formation by hMSCs (Alizarin Red-S staining). The following applies: soluble peptide (50 μg in 500 μl) with osteogenic supplements, hMSCs on TCP, day 20. The class given is cell-based, human. The protocol: hMSCs (Cambrex, Walkersville, Md., passages 5-6) were cultured in mesenchymal stem cell growth medium (MSCGM: Cambrex) consisting of MSC Basal Medium supplemented with 10% fetal bovine serum, L-glutamine, 100 units/ml penicillin, and 0.1 mg/ml streptomycin. 2.5×10^4 hMSCs were seeded onto either tissue culture-treated polystyrene (TCP) or four different types of experimental substrates (1 cm^2) (PLG, HA-coated PLG, eBGu3-treated HA coating, or eBGa3-treated HA coating). hMSCs were allowed to attach to each substrate overnight, then cultured in MSCGM with osteogenic culture supplements (OS) (0.1 μM dexamethasone, 50 μg/ml ascorbic acid, and 10 mM β-glycerophosphate) for 24 days. The effects of soluble peptides included in culture medium were evaluated by adding 50 μg of eBGu3 or eBGa3 peptides to hMSC cultures on TCP in 500 μl of medium with or without osteogenic culture supplements. In each experimental and control sample, whole volume medium changes were performed every 4 days by replacement with fresh medium and collected medium was used for BMP-2 and OCN ELISA assays.
Characterization of mineralized tissue growth was performed via Alizarin Red-S (ARS) staining at day 20. […] For quantification of staining, 400 μl 10% (v/v) acetic acid was added to each well for 30 minutes with shaking. […] Aliquots (100 μl) of the supernatant were read in triplicate at 405 nm in 96-well plate reader.

A short description of assay [3]: Binding of VEGF-OCN and VEGF-mimic to HA particle / HA slab. Here is the method:
To measure the binding efficiency of modular peptides to the HA-coated PLG films and to gain preliminary insight into the properties that influence modular peptide immobilization, we first exposed 1 cm^2 HA-coated PLG films to PBS solutions containing 500 μg (1 mg/ml) of 5(6) FAM-conjugated eBMP-2, eBGu1, eBGu3, eBGa1, or eBGa3 modular peptide solution (See Table 1 for definitions of these abbreviations). The films were incubated in peptide solutions with constant agitation for 4 hours at 37° C., and the amount of free peptide remaining was determined by measuring the fluorescence emission of the solution (excitation: 494 nm; emission 519 nm) using a Synergy HT Multi-Detection Microplate Reader (BioTek, Winooski, Vt.), and comparing this emission to standard samples with known concentrations of 5(6)-FAM. To further characterize surface immobilization of the peptide with the highest binding efficiency—the eBGa3 peptide—1 cm^2 HA-coated films were incubated in various concentrations (50-750 μM) of 5(6)-FAM-conjugated eBGa3 peptide for 4 hours with constant agitation at 37° C. The amount of peptide bound to HA-coated film was again determined by fluorescence analysis, as described above.
The binding behavior of the peptides (both modular peptide, VEGF-OCN (SEQ ID NO:18), and VEGF-mimic) were analyzed and compared as described above. The amount of bound VEGF-OCN on the HA particle increased with peptide concentration and reached saturation at 15 μM (FIG. 8A).

For assay [4], the system named is mouse yolk sac endothelial C166-GFP cells. Kind of assay: C166-GFP cell proliferation with soluble peptides (CYQUANT). Format: cell-based. The note with it: soluble peptide, 48 hours of stimulation, compared to a control. Here is the method:
To determine biological activity of VEGF portion for promoting cell proliferation, mouse yolk sac endothelial C166-GFP cells were seeded at a density of 3.12×10^3 cells/cm^2 (1×10^3 cells per well) in 96-well plate, allowed to attach for six hours, and then stimulated with either VEGF-OCN or VEGF-mimic After 48 hours of stimulation, optical micrographs were taken using Olympus IX-51 microscope and cell numbers were determined by CYQUANT assay.

The test system is the same in assay [5]. The assay can be described thus: C166-GFP cell proliferation on peptide-treated HA slabs (CYQUANT). The class given is cell-based. The note with it: peptide-treated HA slab, 2-day culture, compared to control. The protocol:
Cells were again seeded at a density of 2×10^4 cells/cm^2 (4×10^4 cells per well) in 24-well plate. Prior to seeding, HA slabs (1 cm×1 cm) were incubated in peptide solution (PBS) for four hours at 37° C. and copiously rinsed with deionized water, and then placed in a well of the 24-well plate. After 1-day culture, cells were treated with 2 μM calcein AM solution, and imaged using Olympus IX-51 microscope.
Additionally, a cell number count of the C166-GFP cells as cultured in the presence of VEGF-OCN or VEGF mimic was determined For the cell count, cells were seeded at a density of 5×10^3 cells/cm^2 (1×10^4 cells per well) in a 24-well plate. After 2-day culture, cells were detached from the HA slab and cell number was assessed using CYQUANT assay.

Non-standard residues stand in square brackets, D forms with d. No end group written: not given here. Gla = N[C@@H](CC(C(=O)O)C(=O)O)C(=O)O

“KIPKASSVPTELSAISTLYLAAAAEPRREVAEL [eBGu3]”: the “effect on ALP activity” value in assay [1] was “no significant differences between the positive effects of eBGu3 and eBGa3”. Moreover, the “effect on mineralized tissue formation” value in assay [2] was “no significant differences between the positive effects of eBGu3 and eBGa3”.

With “KIPKASSVPTELSAISTLYLAAAAγEPRRγEVAγEL (KIPKASSVPTELSAISTLYLAAAA[Gla]PRR[Gla]VA[Gla]L-NH2; N-terminus assumed; SMILES CC[C@H](C)[C@H](NC(=O)[C@H](C)NC(=O)[C@H](CO)NC(=O)[C@H](CC(C)C)NC(=O)[C@H](CCC(=O)O)NC(=O)[C@@H](NC(=O)[C@@H]1CCCN1C(=O)[C@@H](NC(=O)[C@H](CO)NC(=O)[C@H](CO)NC(=O)[C@H](C)NC(=O)[C@H](CCCCN)NC(=O)[C@@H]1CCCN1C(=O)[C@@H](NC(=O)[C@@H](N)CCCCN)[C@@H](C)CC)C(C)C)[C@@H](C)O)C(=O)N[C@@H](CO)C(=O)N[C@H](C(=O)N[C@@H](CC(C)C)C(=O)N[C@@H](Cc1ccc(O)cc1)C(=O)N[C@@H](CC(C)C)C(=O)N[C@@H](C)C(=O)N[C@@H](C)C(=O)N[C@@H](C)C(=O)N[C@@H](C)C(=O)N[C@@H](CC(C(=O)O)C(=O)O)C(=O)N1CCC[C@H]1C(=O)N[C@@H](CCCNC(=N)N)C(=O)N[C@@H](CCCNC(=N)N)C(=O)N[C@@H](CC(C(=O)O)C(=O)O)C(=O)N[C@H](C(=O)N[C@@H](C)C(=O)N[C@@H](CC(C(=O)O)C(=O)O)C(=O)N[C@@H](CC(C)C)C(N)=O)C(C)C)[C@@H](C)O) [eBGa3]”, the “effect on ALP activity” value in assay [1] is given as “significantly increased ALP activity”. For the same substance, the “effect on mineralized tissue formation” value in assay [2] is given as “significantly increased”.

As to “KLTWQELYQLKYKGI [VEGF-mimic, First synthesized by Pedon, et al., inspired by the VEGF helical region, reference compound]”, the “amount bound to HA slab” value in assay [3] (HA slab, qualitative comparison) is given as “much less than that of VEGF-OCN”. In assay [4], the cell number result is reported as “increase in cell number to the similar extent when compared to a control”.

For the substance “KLTWQELYQLKYKGI-GGGAAAA-γEPRRγEVAγEL (KLTWQELYQLKYKGIGGGAAAA[Gla]PRR[Gla]VA[Gla]L) [VEGF-OCN]”, in assay [3] (HA particle), the “peptide concentration at which bound amount reached saturation” value is 15 µM and the “time to complete binding to HA particle” value is recorded as “completed within five minutes”. In addition, in assay [4], the cell number result is listed as “increase in cell number to the similar extent when compared to a control”. Moreover, the cell number entry in assay [5] is “promoted cell proliferation”.
